# Measured values published in US8999970B2, “Administration of an anti-obesity compound to individuals with renal impairment” (Arena Pharmaceuticals, Inc., priority 2010, dated 2015).
# Entries after “also recorded” stand apart in the source; their conditions may differ.
# Test: Clinical trial APD356-016: plasma and urine pharmacokinetics of lorcaserin, M1 and M5 after a 10 mg dose in subjects with renal impairment
# Conditions: for Ae0-120 / fe0-120: urine; for CL renal / AUC(0-t) / Cmax / half-life / AUC0-inf / MRT inf / Vd/F / tmax: human, 10 mg; for CL renal: plasma and urine, ClR/F; for AUC(0-t) / Cmax / half-life / AUC0-inf / MRT inf / Vd/F / tmax: plasma; for MRT inf: MRTinf; for Vd/F: Vz/F; for tmax: median
# Method: The interaction of renal insufficiency with the pharmacokinetics, tolerability and safety of lorcaserin were evaluated in a formal PK study in subjects with renal impairment and in the populations studied in phase 2 and phase 3 clinical studies.
# The pharmacokinetic properties of lorcaserin in subjects with varying degrees of renal impairment were evaluated in clinical trial APD356-016. At the time of study conduct and analysis, subjects were assigned to renal impairment groups based on creatinine clearance calculated using IDEAL body weight (Table 1). This calculation was used to avoid overestimation of creatinine clearance due to the excess body weight (overweight and obese subjects were enrolled in the trial). Summaries of pharmacokinetic properties by group assignment using creatinine clearance calculated using ACTUAL body weights are also provided in the sections that follow.
# The FDA expects a reasonable margin between anticipated exposures and exposures that may produce toxicity. A reasonable margin can vary depending on the expected toxicity, but generally is an order of magnitude (10 times), but can sometimes be less for mild toxicity.
# Table 13. Summary of Plasma Concentrations (ng/mL) of HSO3-APD356 Metabolite over Time by Group: Severe Renal Impairment Not Receiving Dialysis (see Table 13 next page)
# Subject number 3140-505 was on dialysis and grouped in the end stage renal disease group.
# [1] = 10 mg dose, Mild, actual BW groups
# [2] = 10 mg dose, Mild, ideal BW groups
# [3] = 10 mg dose, Moderate, actual BW groups
# [4] = 10 mg dose, Moderate, ideal BW groups
# [5] = 10 mg dose, Normal, actual BW groups
# [6] = 10 mg dose, Normal, ideal BW groups
# [7] = 10 mg dose, Severe N = 1, actual BW groups
# [8] = 10 mg dose, Severe, ideal BW groups
# [9] = Moderate N = 8, actual BW groups
# [10] = oral, 10 mg dose, Mild, actual BW groups
# [11] = oral, 10 mg dose, Mild, ideal BW groups
# [12] = oral, 10 mg dose, Moderate, actual BW groups
# [13] = oral, 10 mg dose, Moderate, ideal BW groups
# [14] = oral, 10 mg dose, Normal, actual BW groups
# [15] = oral, 10 mg dose, Normal, ideal BW groups
# [16] = oral, 10 mg dose, Severe N = 1, actual BW groups
# [17] = oral, 10 mg dose, Severe, ideal BW groups
smiles,measurement,setting,value
"C[C@H]1CNCCc2ccc(Cl)cc21 [Lorcaserin, (R)-8-chloro-1-methyl-2,3,4,5-tetrahydro-1H-3-benzazepine]",% AUC0-inf Extrapolated,[1],4.54%
same,Cl/F,[1],17.3 L/h
same,ClNR/F,[1],16.7 L/h
same,T1/2z,[1],14.6 h
same,% AUC0-inf Extrapolated,[2],3.36%
same,Cl/F,[2],13.3 L/h
same,ClNR/F,[2],12.8 L/h
same,T1/2z,[2],13.0 h
same,% AUC0-inf Extrapolated,[3],3.74%
same,Cl/F,[3],18.9 L/h
same,ClNR/F,[3],18.2 L/h
same,T1/2z,[3],14.9 h
same,% AUC0-inf Extrapolated,[4],4.92%
same,Cl/F,[4],17.7 L/h
same,ClNR/F,[4],17.0 L/h
same,T1/2z,[4],15.9 h
same,% AUC0-inf Extrapolated,[5],3.57%
same,Cl/F,[5],15.6 L/h
same,ClNR/F,[5],15.1 L/h
same,T1/2z,[5],12.1 h
same,% AUC0-inf Extrapolated,[6],3.81%
same,Cl/F,[6],17.5 L/h
same,ClNR/F,[6],17.1 L/h
same,T1/2z,[6],11.0 h
same,% AUC0-inf Extrapolated,[7],3.70%
same,Cl/F,[7],17.6 L/h
same,ClNR/F,[7],17.2 L/h
same,T1/2z,[7],18.8 h
same,% AUC0-inf Extrapolated,[8],3.59%
same,Cl/F,[8],19.7 L/h
same,ClNR/F,[8],19.0 L/h
same,T1/2z,[8],15.0 h
same,Ae0-120,[1],297 µg
same,fe0-120,[1],0.0352
same,Ae0-120,[2],326 µg
same,fe0-120,[2],0.0386
same,Ae0-120,[3],304 µg
same,fe0-120,[3],0.0360
same,Ae0-120,[4],327 µg
same,fe0-120,[4],0.0387
same,Ae0-120,[5],257 µg
same,fe0-120,[5],0.0304
same,Ae0-120,[6],185 µg
same,fe0-120,[6],0.0220
same,Ae0-120,[7],204 µg
same,fe0-120,[7],0.0242
same,Ae0-120,[8],280 µg
same,fe0-120,[8],0.0332
same,Removal by hemodialysis,ESRD,not removed; also recorded: not cleared
same,"Geometric Mean Ratio of LSM (90% CI), AUC0-inf, relative to Normal Renal Function Group","Mild N = 10, actual BW groups","0.921 (0.735, 1.15)"
same,"Geometric Mean Ratio of LSM (90% CI), AUClast, relative to Normal Renal Function Group","Mild N = 10, actual BW groups","0.912 (0.723, 1.15)"
same,"Geometric Mean Ratio of LSM (90% CI), Cmax, relative to Normal Renal Function Group","Mild N = 10, actual BW groups","0.819 (0.652, 1.03)"
same,"Geometric Mean Ratio of LSM (90% CI), AUC0-inf, relative to Normal Renal Function Group","Mild, ideal BW groups","1.30 (1.01, 1.67)"
same,"Geometric Mean Ratio of LSM (90% CI), AUClast, relative to Normal Renal Function Group","Mild, ideal BW groups","1.31 (1.01, 1.69)"
same,"Geometric Mean Ratio of LSM (90% CI), Cmax, relative to Normal Renal Function Group","Mild, ideal BW groups","0.991 (0.764, 1.29)"
same,"Geometric Mean Ratio of LSM (90% CI), AUC0-inf, relative to Normal Renal Function Group",[9],"0.869 (0.683, 1.11)"
same,"Geometric Mean Ratio of LSM (90% CI), AUClast, relative to Normal Renal Function Group",[9],"0.868 (0.678, 1.11)"
same,"Geometric Mean Ratio of LSM (90% CI), Cmax, relative to Normal Renal Function Group",[9],"0.738 (0.579, 0.941)"
same,"Geometric Mean Ratio of LSM (90% CI), AUC0-inf, relative to Normal Renal Function Group","Moderate, ideal BW groups","1.03 (0.806, 1.32)"
same,"Geometric Mean Ratio of LSM (90% CI), AUClast, relative to Normal Renal Function Group","Moderate, ideal BW groups","1.02 (0.791, 1.32)"
same,"Geometric Mean Ratio of LSM (90% CI), Cmax, relative to Normal Renal Function Group","Moderate, ideal BW groups","0.697 (0.537, 0.904)"
same,"Geometric Mean Ratio of LSM (90% CI), AUC0-inf, relative to Normal Renal Function Group","Severe N = 1, actual BW groups","0.861 (0.494, 1.50)"
same,"Geometric Mean Ratio of LSM (90% CI), AUClast, relative to Normal Renal Function Group","Severe N = 1, actual BW groups","0.861 (0.487, 1.52)"
same,"Geometric Mean Ratio of LSM (90% CI), Cmax, relative to Normal Renal Function Group","Severe N = 1, actual BW groups","0.468 (0.267, 0.821)"
same,"Geometric Mean Ratio of LSM (90% CI), AUC0-inf, relative to Normal Renal Function Group","Severe, ideal BW groups","0.931 (0.727, 1.19)"
same,"Geometric Mean Ratio of LSM (90% CI), AUClast, relative to Normal Renal Function Group","Severe, ideal BW groups","0.933 (0.723, 1.20)"
same,"Geometric Mean Ratio of LSM (90% CI), Cmax, relative to Normal Renal Function Group","Severe, ideal BW groups","0.686 (0.529, 0.891)"
same,CL renal,[10],10.3 mL/min
same,CL renal,[11],8.88 mL/min
same,CL renal,[12],11.1 mL/min
same,CL renal,[13],11.1 mL/min
same,CL renal,[14],7.8 mL/min
same,CL renal,[15],6.53 mL/min
same,CL renal,[16],7.27 mL/min
same,CL renal,[17],11 mL/min
same,AUC(0-t),"AUC24 hr, ESRD, 10 mg QD Authentic, Day 1",618 ng·h/mL
same,AUC(0-t),"AUC24 hr, Mild, 10 mg QD Authentic, Day 1",623 ng·h/mL
same,AUC(0-t),"AUC24 hr, Moderate, 10 mg QD Authentic, Day 1",515 ng·h/mL
same,AUC(0-t),"AUC24 hr, Normal, 10 mg QD Authentic, Day 1",482 ng·h/mL
same,AUC(0-t),"AUC24 hr, Severe, 10 mg QD Authentic, Day 1",469 ng·h/mL
same,Cmax,"ESRD, 10 mg QD Authentic, Day 1",27.2 ng/mL
same,Cmax,"Mild, 10 mg QD Authentic, Day 1",36.3 ng/mL
same,Cmax,"Moderate, 10 mg QD Authentic, Day 1",26.2 ng/mL
same,Cmax,"Normal, 10 mg QD Authentic, Day 1",37 ng/mL
same,Cmax,"Severe, 10 mg QD Authentic, Day 1",26.4 ng/mL
same,half-life,"t1/2, ESRD, 10 mg QD Authentic, Day 1",43.8 h
same,half-life,"t1/2, Mild, 10 mg QD Authentic, Day 1",13 h
same,half-life,"t1/2, Moderate, 10 mg QD Authentic, Day 1",15.9 h
same,half-life,"t1/2, Normal, 10 mg QD Authentic, Day 1",11 h
same,half-life,"t1/2, Severe, 10 mg QD Authentic, Day 1",15 h
same,AUC0-inf,[10],535 ng·h/mL
same,AUC0-inf,[11],644 ng·h/mL
same,AUC0-inf,[12],516 ng·h/mL
same,AUC0-inf,[13],538 ng·h/mL
same,AUC0-inf,[14],569 ng·h/mL
same,AUC0-inf,[15],501 ng·h/mL
same,AUC0-inf,[16],478 ng·h/mL
same,AUC0-inf,[17],486 ng·h/mL
same,AUC(0-t),"oral, AUC0-t, 10 mg dose, Mild, actual BW groups",513 ng·h/mL
same,AUC(0-t),"oral, AUC0-t, 10 mg dose, Mild, ideal BW groups",623 ng·h/mL
same,AUC(0-t),"oral, AUC0-t, 10 mg dose, Moderate, actual BW groups",497 ng·h/mL
same,AUC(0-t),"oral, AUC0-t, 10 mg dose, Moderate, ideal BW groups",515 ng·h/mL
same,AUC(0-t),"oral, AUC0-t, 10 mg dose, Normal, actual BW groups",549 ng·h/mL
same,AUC(0-t),"oral, AUC0-t, 10 mg dose, Normal, ideal BW groups",482 ng·h/mL
same,AUC(0-t),"oral, AUC0-t, 10 mg dose, Severe N = 1, actual BW groups",461 ng·h/mL
same,AUC(0-t),"oral, AUC0-t, 10 mg dose, Severe, ideal BW groups",469 ng·h/mL
same,Cmax,[10],30.2 ng/mL
same,Cmax,[11],36.3 ng/mL
same,Cmax,[12],27.6 ng/mL
same,Cmax,[13],26.2 ng/mL
same,Cmax,[14],36 ng/mL
same,Cmax,[15],37 ng/mL
same,Cmax,[16],16.4 ng/mL
same,Cmax,[17],26.4 ng/mL
same,MRT inf,[10],19.3 h
same,MRT inf,[11],18 h
same,MRT inf,[12],20.8 h
same,MRT inf,[13],21.1 h
same,MRT inf,[14],16.5 h
same,MRT inf,[15],14.8 h
same,MRT inf,[16],30.8 h
same,MRT inf,[17],21.7 h
same,Vd/F,[10],361 L
same,Vd/F,[11],248 L
same,Vd/F,[12],381 L
same,Vd/F,[13],399 L
same,Vd/F,[14],266 L
same,Vd/F,[15],276 L
same,Vd/F,[16],479 L
same,Vd/F,[17],401 L
same,tmax,[10],2.5 h
same,tmax,[11],4.5 h
same,tmax,[12],2.5 h
same,tmax,[13],2.5 h
same,tmax,[14],2 h
same,tmax,[15],2 h
same,tmax,[16],4 h
same,tmax,[17],3 h
same,Fractional excretion,normal renal function,2.2%
